According to US20250381179A1, “CHROMAN-BASED COMPOUNDS FOR TREATING CANCER” (priority 2024, published 2025):
Like-named read-outs stand apart in the source and are kept apart here.

Tests used:
MCF7 cells = test: MCF7 cell growth inhibition (luminescence-based proliferation assay, CellTiter-Glo)
Procedure: MCF7 cells were obtained from American Type Culture Collection (ATCC). For cell growth assay, MCF7 cells were seeded in 96-well plates at 2000 cells/well in 90 μL of DMEM medium containing 10% fetal bovine serum, and then incubated at 37° C. with 5% CO2 in air overnight. The following day, compound (1-g) and compound (1-h) were administered to the cells by using 1000× compound stock solution prepared in DMSO at concentrations of 3, 1, 0.33, 0.11, 0.037, 0.012, 0.0041, 0.0013, and 0.00046 mM. 1000x compound stock solution was first diluted in culturing medium to 10×, then 10 μL compound medium was added to each well in the cell plates. After administration of compound (1-g) and compound (1-h), the cells were then incubated at 37° C. for 6 days. Upon completion, the plates were equilibrated at room temperature for approximately 10 minutes. 100 μL of CellTiter-Glo® Reagent (Promega) was added to each well. The plates were then incubated at room temperature for 10 minutes and luminescence was recorded by EnSpire plate reader (PerkinElmer).

[1] = Phase 1 study: plasma pharmacokinetics in patients; assay type: in vivo, human; conditions: human, plasma, po; for AUC(0-t): read-out: AUC0-24 h of (1-h); for Tmax: read-out: Tmax* of (1-h); for Cmax: read-out: Cmax of (1-h)
Procedure: All patients received compound (1-g) orally. The time of day for administration of compound (1-g) was consistent. Compound (1-g) was taken whole with liquid(s) and with food in the morning. The patient avoided taking other medications at the same time as compound (1-g). When possible, the patient took other medications in the evening or separated by a minimum of 4 hours following compound (1-g) dosing. On scheduled PK collection days (Cycle 1 Day 1, Cycle 1 Day 15, and Day 1 of Cycles 2, 3, 4, and 6) patients were instructed to wait until they arrive at the study center to take their study drug when told. If a patient missed a dose of compound (1-g), the patient was required to take the dose as soon as possible, but not less than 12 hours before the next dose is due. If vomiting occurred after taking the study treatment, the patient was instructed not to retake the dose and record the dose recorded as taken in the dosing diary, noting that the patient vomited and marking the time of vomiting. Patients were instructed to take the next scheduled dose of compound (1-g).
The plasma PK parameters (including AUC(0-∞), AUC(0-τ), Cmax, tmax, and T1/2) of compound (1-g) following oral administration was assessed by analysis of blood samples. During treatment, PK blood samples were taken at approximately the following time points: • Cycle 1 Day 1, and Day 15: pre-dose; at 1, 2, and 4-hour post-dose (±5 min); 6 and 8-hour post-dose (±10 min); and 24 hours post-dose (+1 hour); • Cycle 2, 3, 4, and 6 Day 1: pre-dose only.
Plasma concentrations of compound (1-g) were used to calculate the PK parameters. These parameters were listed by individual patient and summarized by descriptive statistics (means, medians, ranges, standard deviations, and coefficients of variation as appropriate) by cohort.
Compound (1-g) was administered orally to patients once a day at 100, 200, 300 mg, 400 mg, and 600 mg doses.

[2] = 100 mg, patient plasma after oral (1-g) 100 mg QD, C1D15, n = 2, mean
[3] = 200 mg, patient plasma after oral (1-g) 200 mg QD, C1D1, n = 12, mean
[4] = 200 mg, patient plasma after oral (1-g) 200 mg QD, C1D15, n = 12, mean
[5] = 300 mg, patient plasma after oral (1-g) 300 mg QD, C1D1, n = 10, mean
[6] = 300 mg, patient plasma after oral (1-g) 300 mg QD, C1D15, n = 10, mean
[7] = 400 mg, patient plasma after oral (1-g) 400 mg QD, C1D1, n = 6, mean
[8] = 400 mg, patient plasma after oral (1-g) 400 mg QD, C1D15, n = 5, mean
[9] = 600 mg, patient plasma after oral (1-g) 600 mg QD, C1D1, n = 4, mean
[10] = 600 mg, patient plasma after oral (1-g) 600 mg QD, C1D15, n = 4, mean

GI50 (MCF7 cells; Homo sapiens, 144 h, MCF7 cells, 6 days, CellTiter-Glo): 9 nM
AUC(0-t) ([1]; 100 mg, patient plasma after oral (1-g) 100 mg QD, C1D1, n = 1, mean): 332 ng·h/mL
Tmax ([1]; 100 mg, patient plasma after oral (1-g) 100 mg QD, C1D15, n = 2, *median value): 12 h
AUC(0-t) [1, 2]: 7080 ng·h/mL
Cmax [1, 2]: 326 ng/mL
AUC(0-t) [1, 3]: 1030 ng·h/mL
Cmax [1, 3]: 68.8 ng/mL
Tmax ([1]; 200 mg, patient plasma after oral (1-g) 200 mg QD, C1D15, n = 12, *median value): 7.17 h
AUC(0-t) [1, 4]: 9540 ng·h/mL
Cmax [1, 4]: 428 ng/mL
AUC(0-t) [1, 5]: 1610 ng·h/mL
Cmax [1, 5]: 112 ng/mL
Tmax ([1]; 300 mg, patient plasma after oral (1-g) 300 mg QD, C1D15, n = 10, *median value): 5.8 h
AUC(0-t) [1, 6]: 15400 ng·h/mL
Cmax [1, 6]: 680 ng/mL
AUC(0-t) [1, 7]: 1740 ng·h/mL
Cmax [1, 7]: 118 ng/mL
Tmax ([1]; 400 mg, patient plasma after oral (1-g) 400 mg QD, C1D15, n = 5, *median value): 4.8 h
AUC(0-t) [1, 8]: 17900 ng·h/mL
Cmax [1, 8]: 820 ng/mL
AUC(0-t) [1, 9]: 2470 ng·h/mL
Cmax [1, 9]: 170 ng/mL
Tmax ([1]; 600 mg, patient plasma after oral (1-g) 600 mg QD, C1D15, n = 4, *median value): 10 h
AUC(0-t) [1, 10]: 18700 ng·h/mL
Cmax [1, 10]: 828 ng/mL
SMILES: O=C1CC[C@@H](N2Cc3cc(N4CCN(CC5CCN(c6ccc([C@@H]7c8ccc(O)cc8OC[C@@H]7c7ccccc7)cc6F)CC5)CC4)ccc3C2=O)C(=O)N1 [compound (1-h), (R)-3-(5-(4-((1-(2-fluoro-4-((3S,4R)-7-hydroxy-3-phenylchroman-4-yl)phenyl)piperidin-4-yl)methyl)piperazin-1-yl)-1-oxoisoindolin-2-yl)piperidine-2,6-dione]
reduced the tumor growth by (FIG. 3A/3B) (MCF7 cells; MCF7 cell proliferation assay): about 62%
